From patent US8796245B2 (TetraPhase Pharmaceuticals, Inc., priority 2008, dated 2014)
Converted amounts (≈) assume the structure as drawn.

Key:
[1] = test system: S. aureus ATCC 29213 (SA101, MSSA); experiment: Minimum inhibitory concentration assay, SA101; format: cell-based; conditions: Staphylococcus aureus; S. aureus ATCC 29213, MSSA control; read-out: MICs SA101
Summary of the method: (§1)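 Strains were passaged overnight twice, and isolated colonies were adjusted to 0.5 McFarland and then diluted 1:125 in MHB. Compound was serially diluted across the plate, inoculum was added, and plates were held overnight at 37° C. The endpoint is the lowest concentration without growth.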

[2] = test system: S. aureus ATCC 13709 (SA100, MSSA, Smith strain); experiment: Minimum inhibitory concentration assay, SA100; format: cell-based; conditions: Staphylococcus aureus; S. aureus ATCC 13709, MSSA Smith strain; read-out: MICs SA100
Summary of the method: as §1

[3] = test system: S. aureus SA161 (tet resistant: tet(M) ribosomal protection); experiment: Minimum inhibitory concentration assay, SA161; format: cell-based; conditions: Staphylococcus aureus, read-out: MICs SA161
Summary of the method: as §1

[4] = test system: E. coli EC155 (tet resistant: tetA efflux); experiment: microbe, parasite or virus in culture; format: cell-based; conditions: Escherichia coli; E. coli tet resistant: tetA (efflux); read-out: MICs EC155
Summary of the method: as §1

[5] = test system: K. pneumoniae KP153 (tet resistant: tetA efflux); experiment: microbe, parasite or virus in culture; format: cell-based; conditions: Klebsiella pneumoniae, read-out: MICs KP153
Summary of the method: as §1

[6] = test system: S. aureus SA158 (tet resistant: tetK efflux); experiment: microbe, parasite or virus in culture; format: cell-based; conditions: Staphylococcus aureus, read-out: MICs SA158
Summary of the method: as §1

[7] = test system: E. faecalis ATCC 29212 (EF103); experiment: Minimum inhibitory concentration assay, EF103; format: cell-based; conditions: Enterococcus faecalis, ATCC29212, read-out: MICs EF103
Summary of the method: as §1

[8] = test system: E. faecalis EF159 (tet resistant: tetM); experiment: Minimum inhibitory concentration assay, EF159; format: cell-based; conditions: Enterococcus faecalis, read-out: MICs EF159
Summary of the method: as §1

[9] = test system: S. pneumoniae ATCC 49619 (SP106); experiment: Minimum inhibitory concentration assay, SP106; format: cell-based; conditions: Streptococcus pneumoniae, ATCC49619; S. pneumoniae ATCC 49619, wt; read-out: MICs SP106
Summary of the method: as §1

[10] = test system: S. pneumoniae SP160 (tet resistant: tet M); experiment: Minimum inhibitory concentration assay, SP160; format: cell-based; conditions: Streptococcus pneumoniae, read-out: MICs SP160
Summary of the method: as §1

[11] = test system: E. coli ATCC 25922 (EC107); experiment: Minimum inhibitory concentration assay, EC107; format: cell-based; conditions: Escherichia coli, ATCC25922; E. coli ATCC 25922, wt; read-out: MICs EC107
Summary of the method: as §1

[12] = test system: A. baumanii ATCC 19606 (AB110); experiment: Minimum inhibitory concentration assay, AB110; format: cell-based; conditions: Acinetobacter baumannii, ATCC19606; A. baumanii ATCC 19606, wt; read-out: MICs AB110
Summary of the method: as §1

[13] = test system: P. aeruginosa ATCC 27853 (PA111); experiment: Minimum inhibitory concentration assay, PA111; format: cell-based; conditions: Pseudomonas aeruginosa, ATCC27853; P. aeruginosa ATCC 27853, wt; read-out: MICs PA111
Summary of the method: as §1

[14] = test system: E. cloacae ATCC 13047 (EC108); experiment: Minimum inhibitory concentration assay, EC108; format: cell-based; conditions: Enterobacter cloacae, ATCC13047; E. cloacae ATCC 13047, wt; read-out: MICs EC108
Summary of the method: as §1

[15] = test system: K. pneumoniae ATCC 13883 (KP109); experiment: Minimum inhibitory concentration assay, KP109; format: cell-based; conditions: Klebsiella pneumoniae, ATCC13883; K. pneumoniae ATCC 13883, wt; read-out: MICs KP109
Summary of the method: as §1

[16] = test system: S. aureus isolate, ATCC 13709; experiment: ED50 IV study, mouse systemic infection model; format: in vivo; conditions: Staphylococcus aureus, ATCC13709, mg/kg required to protect 50% of mice in septicemia model with S. aureus Smith strain, 60 minutes post infection, 48 hour survival
Method: Compounds of the present invention were evaluated for efficacy in a mouse systemic infection model against a susceptible S. aureus isolate, ATCC 13709. Mice were infected via intraperitoneal injection with a bacterial load that would result in 0% survival within 48 hours after infection. Mice received the test compounds 60 minutes post infection via intravenous injection. […] Survival was assessed over a 48 hour period. Percent survival was calculated and PD50 values determined using Probit analysis.

[17] = Metabolic stability, pooled human microsome assay; format: in vitro ADME; conditions: % compound remaining after 60 min, 37° C. incubation with human liver microsomes
Method: A stock solution of the test compounds were prepared by dissolving the compound in DMSO to a final concentration of 1.0 mg/mL. The analytes and internal standard were diluted and infused into the LC/MS system to determine optimal ionization, polarity and MS/MS fragmentation for selection of specific MRM (multiple reaction monitoring) transitions. Generic chromatographic conditions were developed with a less than 5 minute cycle time. Pooled human microsome assays were conducted at 0.2 mg/mL protein with an NADPH generating cofactor system (1.3 mM NADP+, 3.3 mM glucose-6-phosphate, 0.4 U/mL glucose-6-phosphate dehydrogenase, and 3.3 mM magnesium chloride). Test compounds were diluted from DMSO stocks to 1 μM reaction concentrations. Time points were removed at 0 and 60 minutes. After a protein crash with acetonitrile, samples are analyzed by LC/MS/MS. Peak areas are compared to the time 0 sample, and the percent analyte remaining is calculated. A reaction containing no cofactor was used to control for analyte loss due to non-specific binding, thermal degradation and solubility.

[18] = test system: clinical isolates of S. aureus; experiment: SA MIC90; format: cell-based; conditions: Staphylococcus aureus; inhibit 90% of S. aureus clinical isolates (n = 20); read-out: SA MIC 90
Method: Twenty randomly selected clinical isolates of S. aureus were used to determine the minimal inhibitory concentration (MIC) of test compounds for 90% of the isolates (MIC90). MICs were performed by microtiter broth dilution in a 96-well format according to Clinical Laboratory Standards Institute (CLSI) guidelines, as described above. Viable counts were determined by 10-fold serial dilution. Dilutions were prepared in sterile 0.9% NaCl. Ten microliters of the inoculum and of each of 5 dilutions were plated onto blood or Mueller Hinton agar plates, incubated overnight at 37° C. with 5% CO2, and counted.

[19] = test system: tetracycline-resistant S. aureus; experiment: TetR MIC90; format: cell-based; conditions: Staphylococcus aureus; inhibit 90% of tetracycline-resistant S. aureus (n = 10); read-out: TetR MIC 90
Method: (§2) Twenty randomly selected clinical isolates of S. aureus were used to determine the minimal inhibitory concentration (MIC) of test compounds for 90% of the isolates (MIC90). MICs were performed by microtiter broth dilution in a 96-well format according to Clinical Laboratory Standards Institute (CLSI) guidelines, as described above.

[20] = test system: clinical isolates of E. coli; experiment: EC MIC90; format: cell-based; conditions: Escherichia coli; inhibit 90% of E. coli clinical isolates (n = 20); read-out: EC MIC 90
Method: as §2, with “above. Twenty randomly selected clinical isolates of E. coli were used to determine the MIC90 as described above.” for “above.”

[21] = Protein binding in human plasma (RED devices); format: in vitro ADME; conditions: % Protein binding in human plasma with compound at 10 uM
Method: Test compounds were prepared as 1.0 mg/mL stock solutions in DMSO. The analytes and internal standard were diluted and infused into the LC/MS system to determine optimal ionization, polarity and MS/MS fragmentation for selection of specific MRM (multiple reaction monitoring) transitions. Generic chromatographic conditions were developed with a less than 5 minute cycle time.
[…] The time point was removed at the end of the incubation period. After a protein crash with acetonitrile, the samples were analyzed by LC/MS/MS. Peak areas for the buffer (receiver) and sample (donor) chambers were compared and the protein bound fraction is calculated. Analysis was conducted in duplicate.

Structure (SMILES)	ED50 [16]	Meta Stab % [17]	MIC90 [18]	MIC90 [19]	MIC90 [20]	Prot Bind % [21]	also measured
CN(C)[C@@H]1C(O)=C(C(N)=O)C(=O)[C@@]2(O)C(O)=C3C(=O)c4c(O)c(NC(=O)CN5Cc6ccccc6C5)cc(F)c4C[C@H]3C[C@@H]12 [Compound 46]	–	–	–	–	–	–	MIC [1]: 0.25 µg/mL (≈ 0.412 µM); MIC [2]: 0.25 µg/mL (≈ 0.412 µM); MIC [3]: 0.5 µg/mL (≈ 0.824 µM); MIC [4]: 4 µg/mL (≈ 6.59 µM); MIC [5]: 32 µg/mL (≈ 52.8 µM); MIC [6]: 0.25 µg/mL (≈ 0.412 µM); MIC [7]: 0.25 µg/mL (≈ 0.412 µM); MIC [8]: 0.5 µg/mL (≈ 0.824 µM); MIC [9]: 0.125 µg/mL (≈ 0.206 µM); MIC [10]: 0.125 µg/mL (≈ 0.206 µM); MIC [11]: 2 µg/mL (≈ 3.3 µM); MIC [12]: 0.125 µg/mL (≈ 0.206 µM); MIC [13]: > 32 µg/mL; MIC [14]: 32 µg/mL (≈ 52.8 µM); MIC [15]: 4 µg/mL (≈ 6.59 µM)
CN(C)[C@@H]1C(O)=C(C(N)=O)C(=O)[C@@]2(O)C(O)=C3C(=O)c4c(O)c(NC(=O)CN5CCC5)cc(F)c4C[C@H]3C[C@@H]12 [drawing 216]	0.07 mg/kg	85%	0.03 µg/mL (≈ 0.0551 µM)	4 µg/mL (≈ 7.35 µM)	0.5 µg/mL (≈ 0.918 µM)	87.1%	–
CN(C)[C@@H]1C(O)=C(C(N)=O)C(=O)[C@@]2(O)C(O)=C3C(=O)c4c(O)c(NC(=O)CNCC5CC5)cc(F)c4C[C@H]3C[C@@H]12 [drawing 218]	0.55 mg/kg	65%	0.03 µg/mL (≈ 0.0537 µM)	8 µg/mL (≈ 14.3 µM)	2 µg/mL (≈ 3.58 µM)	87.9%	–
CC(C)NCC(=O)Nc1cc(F)c2c(c1O)C(=O)C1=C(O)[C@]3(O)C(=O)C(C(N)=O)=C(O)[C@@H](N(C)C)[C@@H]3C[C@@H]1C2 [drawing 219]	0.3 mg/kg	96%	0.06 µg/mL (≈ 0.11 µM)	2 µg/mL (≈ 3.66 µM)	1 µg/mL (≈ 1.83 µM)	96.9%	–
